Measurements published in PubChem BioAssay AID1845205 (Molecular Pharmacology Branch, DTP, NCI, 2023).

Test system: MPNST multicellular tumor spheroids, viability % test/control
Test: Anticancer human tumor MPNST cell line growth inhibition;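 further: spheroids exposed to agents for seven days after three days of growth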;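 on viability, T/C: luminescence signal used as surrogate for viable cell amount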
Details: for IC50: curve of first compound; for viability, T/C: stronger effect = lower value
In short: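 Complex tumor spheroids combined malignant cells with endothelial cells and mesenchymal stem cells. DNA-damaging drugs and DNA repair inhibitors were tested alone and in combination, at half-log dilutions down from clinical Cmax (top 10 microM if Cmax unknown), 0.25% DMSO final.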

O=C(c1cc(Cc2n[nH]c(=O)c3ccccc23)ccc1F)N1CCN(C(=O)C2CC2)CC1 + Cn1nnc2c(C(N)=O)ncn2c1=O
IC50 (second compound 1 µM): 17.7 µM | IC50 (second compound 3.16 µM): 22.9 µM | IC50 (second compound 10 µM): 26.4 µM | IC50 (second compound 31.6 µM): 16.4 µM | IC50 (second compound 100 µM): 2.85 µM | viability, T/C (second compound 1 µM, first compound 0.0949 µM): 70.9% | viability, T/C (second compound 1 µM, first compound 0.3 µM): 77.9% | viability, T/C (second compound 1 µM, first compound 0.949 µM): 82% | viability, T/C (second compound 1 µM, first compound 3 µM): 71.9% | viability, T/C (second compound 1 µM, first compound 9.49 µM): 56.1% | viability, T/C (second compound 1 µM, first compound 30 µM): 44.9% | viability, T/C (second compound 3.16 µM, first compound 0.0949 µM): 83.8% | viability, T/C (second compound 3.16 µM, first compound 0.3 µM): 80.2% | viability, T/C (second compound 3.16 µM, first compound 0.949 µM): 92.1% | viability, T/C (second compound 3.16 µM, first compound 3 µM): 77.2% | viability, T/C (second compound 3.16 µM, first compound 9.49 µM): 65.3% | viability, T/C (second compound 3.16 µM, first compound 30 µM): 45.4% | viability, T/C (second compound 10 µM, first compound 0.0949 µM): 118% | viability, T/C (second compound 10 µM, first compound 0.3 µM): 95.2% | viability, T/C (second compound 10 µM, first compound 0.949 µM): 87.6% | viability, T/C (second compound 10 µM, first compound 3 µM): 66.2% | viability, T/C (second compound 10 µM, first compound 9.49 µM): 60.9% | viability, T/C (second compound 10 µM, first compound 30 µM): 48.1% | viability, T/C (second compound 31.6 µM, first compound 0.0949 µM): 82.6% | viability, T/C (second compound 31.6 µM, first compound 0.3 µM): 107% | viability, T/C (second compound 31.6 µM, first compound 0.949 µM): 80.2% | viability, T/C (second compound 31.6 µM, first compound 3 µM): 70.3% | viability, T/C (second compound 31.6 µM, first compound 9.49 µM): 54.1% | viability, T/C (second compound 31.6 µM, first compound 30 µM): 45.8% | viability, T/C (second compound 100 µM, first compound 0.0949 µM): 83.4% | viability, T/C (second compound 100 µM, first compound 0.3 µM): 85.6% | viability, T/C (second compound 100 µM, first compound 0.949 µM): 72.6% | viability, T/C (second compound 100 µM, first compound 3 µM): 49.2% | viability, T/C (second compound 100 µM, first compound 9.49 µM): 46.1% | viability, T/C (second compound 100 µM, first compound 30 µM): 44.7%

CC1COCCN1c1cc(-c2ccnn2C)c2ccnc(-c3ccn[nH]3)c2n1 (stereo not given) + Cn1nnc2c(C(N)=O)ncn2c1=O
IC50 (second compound 1 µM): 0.198 µM | IC50 (second compound 3.16 µM): 0.238 µM | IC50 (second compound 10 µM): 0.142 µM | IC50 (second compound 31.6 µM): 0.386 µM | IC50 (second compound 100 µM): 0.182 µM | viability, T/C (second compound 1 µM, first compound 0.0316 µM): 62% | viability, T/C (second compound 1 µM, first compound 0.1 µM): 55.8% | viability, T/C (second compound 1 µM, first compound 0.316 µM): 45.8% | viability, T/C (second compound 1 µM, first compound 1 µM): 39.7% | viability, T/C (second compound 1 µM, first compound 3.16 µM): 34.1% | viability, T/C (second compound 1 µM, first compound 10 µM): 35.3% | viability, T/C (second compound 3.16 µM, first compound 0.0316 µM): 62.2% | viability, T/C (second compound 3.16 µM, first compound 0.1 µM): 56.2% | viability, T/C (second compound 3.16 µM, first compound 0.316 µM): 47.9% | viability, T/C (second compound 3.16 µM, first compound 1 µM): 39.5% | viability, T/C (second compound 3.16 µM, first compound 3.16 µM): 31% | viability, T/C (second compound 3.16 µM, first compound 10 µM): 31.9% | viability, T/C (second compound 10 µM, first compound 0.0316 µM): 64.2% | viability, T/C (second compound 10 µM, first compound 0.1 µM): 52.2% | viability, T/C (second compound 10 µM, first compound 0.316 µM): 45.2% | viability, T/C (second compound 10 µM, first compound 1 µM): 38.2% | viability, T/C (second compound 10 µM, first compound 3.16 µM): 35.9% | viability, T/C (second compound 10 µM, first compound 10 µM): 34.4% | viability, T/C (second compound 31.6 µM, first compound 0.0316 µM): 61.8% | viability, T/C (second compound 31.6 µM, first compound 0.1 µM): 57.1% | viability, T/C (second compound 31.6 µM, first compound 0.316 µM): 52.5% | viability, T/C (second compound 31.6 µM, first compound 1 µM): 41.2% | viability, T/C (second compound 31.6 µM, first compound 3.16 µM): 32.2% | viability, T/C (second compound 31.6 µM, first compound 10 µM): 31.5% | viability, T/C (second compound 100 µM, first compound 0.0316 µM): 63.6% | viability, T/C (second compound 100 µM, first compound 0.1 µM): 54.4% | viability, T/C (second compound 100 µM, first compound 0.316 µM): 46.1% | viability, T/C (second compound 100 µM, first compound 1 µM): 37.1% | viability, T/C (second compound 100 µM, first compound 3.16 µM): 30.2% | viability, T/C (second compound 100 µM, first compound 10 µM): 31.8%
